In US8956677B2, “High-potency sweetener composition with glucosamine and compositions sweetened therewith” (The Coca-Cola Company, priority 2005, dated 2015):

Assay: Sensory evaluation of sweetness linger and sugar-like taste by a panel of experts
Format: in vivo
Parameters: key: 0=no sweetness linger; 1=very slight sweetness linger; 2=slight sweetness linger; 3=moderate sweetness linger; 4=moderately high sweetness linger; 5=high sweetness linger
Method: As used herein, the phrases “sugar-like characteristic,” “sugar-like taste,” “sugar-like sweet,” “sugary,” and “sugar-like” are synonymous. […] These characteristics are dimensions in which the taste of sucrose is different from the tastes of natural and synthetic high-potency sweeteners. Whether or not a characteristic is more sugar-like is determined by expert sensory panel assessments of sugar and compositions comprising at least one natural and/or synthetic high-potency sweetener, both with and without a sweet taste improving composition. Such assessments quantify similarities of the characteristics of compositions comprising at least one natural and/or synthetic high-potency sweetener, both with and without a sweet taste improving composition, with those comprising sugar. Suitable procedures for determining whether a composition has a more sugar-like taste are well known in the art.
In a particular embodiment, a panel of assessors is used to measure the reduction of sweetness linger. Briefly described, a panel of assessors (generally 8 to 12 individuals) is trained to evaluate sweetness perception and measure sweetness at several time points from when the sample is initially taken into the mouth until 3 minutes after it has been expectorated. […] A decrease in score for a time point measured after the sample has cleared the mouth indicates there has been a reduction in sweetness perception.
The panel of assessors may be trained using procedures well known to those of ordinary skill in the art. In a particular embodiment, the panel of assessors may be trained using the Spectrum™ Descriptive Analysis Method (Meilgaard et al, Sensory Evaluation Techniques 3rd edition, Chapter 11). […]
Sensory evaluation of the samples prepared in Example Set G was carried out under the following protocol, similar to that described hereinabove. […] Immediately upon sensing maximal sweetness, the sample was expectorated, the mouth was rinsed with water and the rate of sweetness decay (“Sweetness Linger”) was measured, where attention was focused on the sweetness 3-4 min after the water rinse. […]

rebaudioside A
5: sweetness linger (400 ppm REBA in citric acid/potassium citrate composition equivalent to that in a diet lemon-lime beverage, with or without additive, scale 0-5, sweetness 3-4 min after water rinse) | sweetness linger (500 ppm REBA in carbon-treated water, phosphoric acid (75%) to pH 2.4-2.5, with or without additive, scale 0-5) | Sweetness Linger rating defined for controls (scale anchors defined by the protocol, REBA control sample at 500 ppm)
